From patent publication US5273903A, “Biotechnological process for the production of S-(+)-2,2-dimethylcyclopropanecarboxamide” (Lonza Ltd., priority 1991, dated 1993)
Where “and” joins values, the source holds several entries; their conditions need not be identical. Equal values may be shown once.

Columns and labels:
[1] = tested on: immobilized biocatalyst (polyethylene imine/glutaraldehyde treated cells); experiment: Activity of immobilized cells (immobilized biocatalyst); assay type: cell-based, Comamonas acidovorans A:18; conditions: cells immobilized by polyethylene imine/glutaraldehyde treatment
Description: After induction (corresponding to Example 3), the cells of Comamonas acidovorans A:18, were harvested. These cells were immobilized by a polyethylene imine/glutaraldehyde treatment (corresponding to Czechoslovakian Patent No. 251,111). […] The dry weight of the biocatalyst corresponded to 32 percent of the moist weight. Then, the biocatalyst (with 55 g moist weight) was suspended in 800 ml of boric acid (10 mM, pH 9.0) with 16 g of R,S-(±)-2,2-DMCPCA. After an incubation time of 68.8 hours at 37 C and at a stirring speed of 200 rpm, R-(-)-2,2-DMCPCA was completely reacted to R-(-)-2,2-DMCPCS, which corresponded to an optical purity (ee) of 98.2 percent and an analytically measured yield in S-(+)-2,2-DMCPCA of 40 percent.

[2] = tested on: R-(-)-2,2-DMCPCA-hydrolase; experiment: Hydrolase activity during biotransformation with whole cells; assay type: cell-based, Bacterium sp. VIII:II (DSM No. 6316); conditions: 0.2 percent by weight substrate; otherwise conditions of Example 3
Description: (§1) To determine the activity of the hydrolase, the microorganism suspension was adjusted to an optical density of 0.5 at 650 nm. As a medium, a phosphate buffer (10 mmol), pH 7.0, with 0.2 percent by weight of R,S-2,2-DMCPCA, was used. This suspension was incubated for 3 hours at 30° C. with shaking. The NH4^+ released by the hydrolase or the R-(-)-2,2-DMCPCS was measured and the activity reacted as g of R-(-)-2,2-DMCPCA was expressed /1/h/ optical density at 650 nm, provided that 1 mmol of formed NH4^+ equals 1 mmol of reacted R-(-)-2,2-DMCPCA.
(§2) Comamonas acidovorans A:18 was incubated on mineral salt medium-agar plates with glycerin as a C-source and ammonium sulfate as an N-source for 2 days at 30° C. With these plated-out microorganisms, an initial culture medium with the same composition was inoculated and incubated for 2 days at 30° C. […] After an incubation of about 25 hours at 37° C., R-(-)-2,2-DMCPCA was completely reacted to R-(-)-2,2-DMCPCS, which corresponded to an optical purity (ee) of 100 percent and an analytically measured yield in S-(+)-2,2-DMCPCA of 46.7 percent. […]
In contrast to Example 3, the biotransformation in this microorganism was performed with 0.2 percent by weight of R,S-(±)-2,2-DMCPCA, and the activity of the hydrolase was determined as 0.13 g/1/h/OD650nm.

[3] = tested on: R-(-)-2,2-DMCPCA-hydrolase; experiment: Determination of activity of R-(-)-2,2-DMCPCA-hydrolase, microorganism suspension; assay type: cell-based, Comamonas acidovorans A:18 (DSM No. 6315); conditions: phosphate buffer 10 mmol pH 7.0, 0.2 percent by weight substrate, 3 hours
Description: as §1, with “This suspension was incubated for 3 hours at 30° C. with shaking.” left out

[4] = tested on: R-(-)-2,2-DMCPCA-hydrolase; experiment: Hydrolase activity during biotransformation with whole cells; assay type: cell-based, Pseudomonas sp. NSAK:42 (DSM No. 6433); conditions: 0.2 percent by weight substrate; otherwise conditions of Example 3
Description: as §1, §2
Analogously to Example 1, Pseudomonas sp. […] The biotransformation was performed with 0.2 percent by weight of R,S-(±)-2,2-DMCPCA, and the activity of the hydrolase was determined as 0.34 g/1/h/OD650nm.

[5] = tested on: cell-free enzyme extract (R-(-)-2,2-DMCPCA-hydrolase); experiment: Activity of cell-free enzyme extract; assay type: biochemical, Comamonas acidovorans A:18; conditions: 30 °C; phosphate buffer 10 mM pH 7.0; 0.2 percent by weight R,S-(±)-2,2-DMCPCA; about 0.8 mg of protein
Description: After induction, the cells of Comamonas acidovorans A:18 were concentrated to an optical density at 650 nm from 210 to 95 ml in the HEPES buffer (10 mM, pH 7.0). Then, the cells were broken down twice in the French press at a pressure of 1200 bars. To obtain a cell-free enzyme extract, all of this material was then centrifuged at 20,000 rpm for 20 minutes. In this cell-free enzyme extract, the amount of protein (measured according to the Bradford method) was then determined as 39.3 mg of protein/ml. To determine the activity of these cell-free enzymes, 20 microliters (about 0.8 mg of protein) of this cell-free enzyme extract was taken up in 4 ml of phosphate buffer (10 mM, pH 7.0), containing 0.2 percent by weight of R,S-(±)-2,2-DMCPCA and incubated at 30° C. Here, 2.5 g of R-(-)-2,2-DMCPCA/h/g of protein (3.64 micromol/min/g of protein) was converted to the corresponding acid.

SMILES | activity of the immobilized biocatalyst [1] | activity of the hydrolase [2] | hydrolase Activity ([3]; 25 °C) | hydrolase Activity ([3]; 30 °C) | hydrolase Activity ([3]; 37 °C) | hydrolase Activity ([3]; 45 °C) | hydrolase Activity ([3]; 48 °C) | hydrolase Activity ([3]; 55 °C) | hydrolase Activity ([3]; 65 °C) | activity of the hydrolase [4] | converted to the corresponding acid [5]
CC1(C)CC1C(N)=O (racemic) [R,S-(±)-2,2-DMCPCA, R,S-(±)-2,2-dimethylcyclopropanecarboxamide] | 1.6 micromol/min g of dry weight | 0.13 g/1/h/OD650nm | 0.25 g/l/h/OD650 | 0.5 g/l/h/OD650 | 1.0 g/l/h/OD650 | 1.5 g/l/h/OD650 | 1.8 g/l/h/OD650 | 1.9 g/l/h/OD650 | 0 g/l/h/OD650 | 0.34 g/1/h/OD650nm | 
CC1(C)C[C@H]1C(N)=O [R-(-)-2,2-DMCPCA, R-(-)-2,2-dimethylcyclopropanecarboxamide] |  |  |  |  |  |  |  |  |  |  | 2.5 g/h/g of protein and 3.64 micromol/min/g of protein
